Here are results for 16 compounds from US9751869B2, “LXR modulators” (BRISTOL-MYERS SQUIBB COMPANY, priority 2013, dated 2017).

This test deals with T1, LXRβ (Homo sapiens, UniProt P55055).
T1 construct: Co-transfection expression plasmids, comprising full-length LXRα (pCMX-h LXRα or LXRβ (pCMX-hLXRβ)); expressed in transfected cells; host or cells: CV-1 African green monkey kidney cells, transient transfection with pCMX-hLXRβ
T1 sequence (P55055 1-460): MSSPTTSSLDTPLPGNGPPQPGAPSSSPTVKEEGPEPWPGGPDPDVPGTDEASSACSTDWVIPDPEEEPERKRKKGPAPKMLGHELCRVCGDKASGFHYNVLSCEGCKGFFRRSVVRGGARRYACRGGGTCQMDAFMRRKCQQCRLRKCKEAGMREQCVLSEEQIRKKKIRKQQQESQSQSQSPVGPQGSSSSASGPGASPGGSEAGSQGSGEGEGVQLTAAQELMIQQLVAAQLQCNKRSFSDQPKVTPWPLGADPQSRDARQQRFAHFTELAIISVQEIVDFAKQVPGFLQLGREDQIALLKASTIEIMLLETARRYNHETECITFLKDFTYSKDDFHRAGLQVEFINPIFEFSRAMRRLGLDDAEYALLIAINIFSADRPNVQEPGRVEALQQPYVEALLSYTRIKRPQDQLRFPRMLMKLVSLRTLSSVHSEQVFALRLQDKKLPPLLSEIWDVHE
T1 sequence (P19793 1-462 partner): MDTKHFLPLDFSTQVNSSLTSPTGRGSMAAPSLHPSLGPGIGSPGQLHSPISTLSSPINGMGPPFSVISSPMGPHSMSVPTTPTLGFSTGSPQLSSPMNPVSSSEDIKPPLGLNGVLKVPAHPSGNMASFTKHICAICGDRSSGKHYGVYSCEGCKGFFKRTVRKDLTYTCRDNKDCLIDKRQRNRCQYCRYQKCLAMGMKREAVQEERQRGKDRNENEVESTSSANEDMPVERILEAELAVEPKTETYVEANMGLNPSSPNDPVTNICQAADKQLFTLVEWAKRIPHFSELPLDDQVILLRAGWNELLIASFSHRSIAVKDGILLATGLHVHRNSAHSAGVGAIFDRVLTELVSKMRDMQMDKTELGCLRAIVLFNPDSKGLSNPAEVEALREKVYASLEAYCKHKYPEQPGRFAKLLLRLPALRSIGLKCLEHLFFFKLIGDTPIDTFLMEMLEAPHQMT
The experiment in a line: LXR/LXRE co-transfection assay (luciferase reporter) in CV-1 cells, LXRβ. The following applies: for EC50: CV-1 cells transfected with pCMX-hLXRβ and LXREx1-Tk-Luciferase, 20 hours incubation, read-out: LXRbeta agonism EC50; for Emax: read-out: LXRbeta % EFFICACY
In kind it is cell-based. The gist of the method:
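Luciferase read-out after 20 h compound treatment at 37 °C of CV-1 cells carrying transfected hLXRβ plus one-copy LXRE reporter, endogenous RXR partnering. Sigmoidal fit of 10-point half-log curves (4 wells each) gave EC50; % efficacy versus maximal response of the propionamide reference agonist.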
In general terms: Reporter assays use an easily measured gene product as a stand-in for the process of interest.

[1] abbreviates: CV-1 cells, relative to maximum response of high control N-(3-((4-fluorophenyl)-(naphthalene-2-sulfonyl)amino)propyl)-2,2-dimethylpropionamide.

Regarding `Cc1nc(-c2ccc3c(c2)OC(F)(F)O3)c(-c2cc(-c3cc(F)c(CO)c(S(C)(=O)=O)c3)ccc2-c2cc(C(C)(C)C#N)nn2C)o1` [Example 67, 2-(5-(3-(4-(2,2-difluorobenzo[d][1,3]dioxol-5-yl)-2-methyloxazol-5-yl)-3′-fluoro-4′-(hydroxymethyl)-5′-(methylsulfonyl)biphenyl-4-yl)-1-methyl-1H-pyrazol-3-yl)-2-methylpropanenitrile], the concentration for a half-maximal effect (EC50) (in general, the concentration that produces a half-maximal response) amounted to 24 nM. In addition, under setting [1], the “LXRbeta % EFFICACY” value was determined as 79%.
For `Cc1nc(-c2ccc3c(c2)OC(F)(F)O3)c(-c2cc(-c3cc(F)c(CO)c(S(C)(=O)=O)c3)ccc2-c2cc(C(C)(C)c3nnco3)nn2C)o1` [Example 68, (4′-(3-(2-(1,3,4-oxadiazol-2-yl)propan-2-yl)-1-methyl-1H-pyrazol-5-yl)-3′-(4-(2,2-difluorobenzo[d][1,3]dioxol-5-yl)-2-methyloxazol-5-yl)-3-fluoro-5-(methylsulfonyl)biphenyl-4-yl)methanol], the EC50 was found to be 29 nM. Moreover, the Emax under setting [1] amounted to 51%.
For `Cc1nc(-c2ccc3c(c2)OC(F)(F)O3)c(-c2cc(-c3cc(F)c(CO)c(S(C)(=O)=O)c3)ccc2-c2cc(CS(=O)(=O)N(C)C)nn2C)o1` [Example 69, 1-(5-(3-(4-(2,2-difluorobenzo[d][1,3]dioxol-5-yl)-2-methyloxazol-5-yl)-3′-fluoro-4′-(hydroxymethyl)-5′-(methylsulfonyl)-[1,1′-biphenyl]-4-yl)-1-methyl-1H-pyrazol-3-yl)-N,N-dimethylmethanesulfonamide], the EC50 was found to be 160 nM. Under setting [1], the Emax amounted to 24%.
Taken in the same sequence, the figures for `Cc1nc(-c2ccc(OC(F)(F)F)cc2)c(-c2cc(-c3cc(F)c(CO)c(S(C)(=O)=O)c3)ccc2-c2cc(C(F)(F)C(N)=O)nn2C)o1` [Example 70, 2,2-difluoro-2-(5-(3′-fluoro-4′-(hydroxymethyl)-3-(2-methyl-4-(4-(trifluoromethoxy)phenyl)oxazol-5-yl)-5′-(methylsulfonyl)biphenyl-4-yl)-1-methyl-1H-pyrazol-3-yl)acetamide] were 317 nM and 42%.
As to `Cc1nc(-c2ccc(OC(F)F)c(F)c2)c(-c2cc(-c3cc(F)c(CO)c(S(C)(=O)=O)c3)ccc2-c2cc(C(F)(F)C(N)=O)nn2C)o1` [Example 71, 2-(5-(3-(4-(4-(difluoromethoxy)-3-fluorophenyl)-2-methyloxazol-5-yl)-fluoro-4′-(hydroxymethyl)-5′-(methylsulfonyl)biphenyl-4-yl)-1-methyl-1H-pyrazol-3-yl)-2,2-difluoroacetamide], the EC50 came out at 47 nM. Under setting [1], the Emax was 52%.
For `Cc1nc(-c2ccc(OC(F)F)c(F)c2)c(-c2cc(-c3cccc(S(C)(=O)=O)c3)ccc2-c2cc(C(F)(F)C(N)=O)nn2C)o1` [Example 72, 2-(5-(3-(4-(4-(difluoromethoxy)-3-fluorophenyl)-2-methyloxazol-5-yl)-3′-(methylsulfonyl)biphenyl-4-yl)-1-methyl-1H-pyrazol-3-yl)-2,2-difluoroacetamide], the EC50 is 73 nM. The Emax under setting [1] turned out to be 60%.
Regarding `Cc1nc(-c2ccc3c(c2)OC(F)(F)O3)c(-c2cc(-c3cccc(S(C)(=O)=O)c3)ccc2-c2cc(C(F)(F)C(N)=O)nn2C)o1` [Example 73, 2-(5-(3-(4-(2,2-difluorobenzo[d][1,3]dioxol-5-yl)-2-methyloxazol-5-yl)-3′-(methylsulfonyl)biphenyl-4-yl)-1-methyl-1H-pyrazol-3-yl)-2,2-difluoroacetamide], the concentration giving a half-maximal response (EC50) turned out to be 42 nM. Moreover, under setting [1], the Emax stood at 55%.
On to `Cc1nc(-c2ccc3c(c2)OC(F)(F)O3)c(-c2cc(-c3cc(F)c(CO)c(S(C)(=O)=O)c3)ccc2-c2cc(C(F)(F)C(N)=O)nn2C)o1` [Example 74, 2-(5-(3-(4-(2,2-difluorobenzo[d][1,3]dioxol-5-yl)-2-methyloxazol-5-yl)-3′-fluoro-4′-(hydroxymethyl)-5′-(methylsulfonyl)biphenyl-4-yl)-1-methyl-1H-pyrazol-3-yl)-2,2-difluoroacetamide], for which the EC50 came out at 92 nM. Moreover, the Emax under setting [1] was determined as 60%.
`Cc1nc(-c2ccc3c(c2)OC(F)(F)O3)c(-c2cc(-c3cc(F)c(CO)c(S(C)(=O)=O)c3)ccc2-c2cc(C(F)(F)C(=O)O)nn2C)o1` [Example 75, 2-(5-(3-(4-(2,2-difluorobenzo[d][1,3]dioxol-5-yl)-2-methyloxazol-5-yl)-3′-fluoro-4′-(hydroxymethyl)-5′-(methylsulfonyl)biphenyl-4-yl)-1-methyl-1H-pyrazol-3-yl)-2,2-difluoroacetic acid]: the concentration for a half-maximal effect (EC50) stood at 7670 nM. Besides, under setting [1], the Emax came to 52%.
On to `Cc1nc(-c2ccc(OC(F)F)c(F)c2)c(-c2cc(-c3cccc(S(C)(=O)=O)c3)ccc2-c2cc(C(F)(F)CO)nn2C)o1` [Example 76, 2-(5-(3-(4-(4-(difluoromethoxy)-3-fluorophenyl)-2-methyloxazol-5-yl)-3′-(methylsulfonyl)biphenyl-4-yl)-1-methyl-1H-pyrazol-3-yl)-2,2-difluoroethanol], for which the EC50 came to 84 nM. In addition, the Emax under setting [1] was 88%.
The corresponding values for `Cc1nc(-c2ccc(OC(F)F)c(F)c2)c(-c2cc(-c3cc(F)c(CO)c(S(C)(=O)=O)c3)ccc2-c2cc(C(F)(F)CO)nn2C)o1` [Example 77, 2-(5-(3-(4-(4-(difluoromethoxy)-3-fluorophenyl)-2-methyloxazol-5-yl)-3′-fluoro-4′-(hydroxymethyl)-5′-(methylsulfonyl)biphenyl-4-yl)-1-methyl-1H-pyrazol-3-yl)-2,2-difluoroethanol] are 30 nM and 86%.
Consider `CNC(=O)C(F)(F)c1cc(-c2ccc(-c3cc(F)c(CO)c(S(C)(=O)=O)c3)cc2-c2oc(C)nc2-c2ccc(OC(F)F)c(F)c2)n(C)n1` [Example 78, 2-(5-(3-(4-(4-(difluoromethoxy)-3-fluorophenyl)-2-methyloxazol-5-yl)-3′-fluoro-4′-(hydroxymethyl)-5′-(methylsulfonyl)biphenyl-4-yl)-1-methyl-1H-pyrazol-3-yl)-2,2-difluoro-N-methylacetamide], for which the concentration giving a half-maximal response (EC50) came out at 72 nM. The Emax under setting [1] was determined as 79%.
Turning to `Cc1nc(-c2ccc(OC(F)F)c(F)c2)c(-c2cc(-c3cc(F)c(CO)c(S(C)(=O)=O)c3)ccc2-c2cc(C(F)(F)C(=O)N(C)C)nn2C)o1` [Example 79, 2-(5-(3-(4-(4-(difluoromethoxy)-3-fluorophenyl)-2-methyloxazol-5-yl)-3′-fluoro-4′-(hydroxymethyl)-5′-(methylsulfonyl)biphenyl-4-yl)-1-methyl-1H-pyrazol-3-yl)-2,2-difluoro-N,N-dimethylacetamide], the EC50 stood at 17 nM. For the same compound, the Emax under setting [1] was found to be 87%.
The corresponding values for `Cc1nc(-c2ccc3c(c2)OC(F)(F)O3)c(-c2cc(-c3cc(F)c(CO)c(S(C)(=O)=O)c3)ccc2-c2cc(C(F)(F)C(=O)N(C)C)nn2C)o1` [Example 80, 2-(5-(3-(4-(2,2-difluorobenzo[d][1,3]dioxol-5-yl)-2-methyloxazol-5-yl)-3′-fluoro-4′-(hydroxymethyl)-5′-(methylsulfonyl)biphenyl-4-yl)-1-methyl-1H-pyrazol-3-yl)-2,2-difluoro-N,N-dimethylacetamide] are 131 nM and 58%.
The corresponding values for `Cc1nc(-c2ccc3c(c2)OC(F)(F)O3)c(-c2cc(-c3cc(F)c(CO)c(S(C)(=O)=O)c3)ccc2-c2cc(C(F)(F)C(=O)N3CCOCC3)nn2C)o1` [Example 81, 2-(5-(3-(4-(2,2-difluorobenzo[d][1,3]dioxol-5-yl)-2-methyloxazol-5-yl)-3′-fluoro-4′-(hydroxymethyl)-5′-(methylsulfonyl)biphenyl-4-yl)-1-methyl-1H-pyrazol-3-yl)-2,2-difluoro-1-morpholinoethanone] are 184 nM and 43%.
The corresponding values for `Cc1nc(-c2ccc3c(c2)OC(F)(F)O3)c(-c2cc(-c3cc(F)c(CO)c(S(C)(=O)=O)c3)ccc2-c2cc(C(F)(F)C(=O)NC(C)C)nn2C)o1` [Example 82, 2-(5-(3-(4-(2,2-difluorobenzo[d][1,3]dioxol-5-yl)-2-methyloxazol-5-yl)-3′-fluoro-4′-(hydroxymethyl)-5′-(methylsulfonyl)biphenyl-4-yl)-1-methyl-1H-pyrazol-3-yl)-2,2-difluoro-N-isopropylacetamide] are 59 nM and 33%.
